# Measured values published in US20210309666A1, “SMALL MOLECULE MDM2 PROTEIN DEGRADERS” (THE REGENTS OF THE UNIVERSITY OF MICHIGAN, priority 2018, published 2021).
# System: RS4;11 cells
# Experiment: Cell growth inhibition, 4-day proliferation assay (WST-8)
# Assay type: cell-based
# Conditions: Homo sapiens, 96 h; RS4;11 cells, 4 days, WST-8; read-out: RS4; 11 Cells IC50
# Experimental: The effect of representative Compounds of the Disclosure on cell viability was determined in a 4-day proliferation assay. Cells were maintained in the appropriate culture medium with 10% FBS at 37° C. and an atmosphere of 5% CO2. Also, the effect of a MDM2 inhibitor (Cpd. A; see Compound Example No. 22 of U.S. Pat. No. 8,629,141) and a known MDM2 degrader (Cpd. D, see Cpd. No. 175 of WO 2017/0176957) on cell viability in various cell lines is also included in Table 5. Cpd. […] A and D. The structure of Cpd. A is:
# Cells were seeded in 96-well flat bottom (Corning COSTAR, Corning, N.Y., cat #3595) at a density of 2,000-3,000 cells/well in 100 μL of culture medium. Compounds were serially diluted in the appropriate medium, and 100 μL of the diluted compounds were added to the appropriate wells of the cell plate. After the addition of compounds, the cells were incubated at 37° C. in an atmosphere of 5% CO2 for 4 days. Cell viability was determined using the WST (2-(2-methoxy-4-nitrophenyl)-3-(4-nitrophenyl)-5-(2,4-disulfophenyl)-2H-tetrazolium, monosodium salt) Cell Counting-8 Kit (Dojindo Molecular Technologies, Inc., Rockville, Md.) according to the manufacturers' instructions.
# WST-8 reagent was added to each well at a final concentration of 10% (v/v), and then the plates were incubated at 37° C. for 1-2 hours for color development. The absorbance was measured at 450 nm using a SPECTRAmax PLUS plate reader (Molecular Devices, Sunnyvale, Calif.). The readings were normalized to the DMSO-treated cells and the half maximal inhibitory concentration (IC50) was calculated by nonlinear regression (four parameters sigmoid fitted with variable slope, least squares fit, and no constraint) analysis using the GraphPad Prism 5 software (GraphPad Software, La Jolla, Calif.).
row,SMILES,IC50 [nM]
1,"O=C1CCC(N2Cc3c(NC4CCN(CCCNC(=O)C56CCC(NC(=O)[C@@H]7NC8(CCCCC8)[C@@]8(C(=O)Nc9cc(Cl)ccc98)[C@H]7c7cccc(Cl)c7F)(CC5)CC6)CC4)cccc3C2=O)C(=O)N1 (stereo partly drawn) [Cpd. No. 1, (3′R,4′S,5′R)-6″-chloro-4′-(3-chloro-2-fluorophenyl)-N-(4-((3-(4-((2-(2,6-dioxopiperidin-3-yl)-1-oxoisoindolin-4-yl)amino)piperidin-1-yl)propyl)carbamoyl)bicyclo[2.2.2]octan-1-yl)-2″-oxodispiro[cyclohexane-1,2′-pyrrolidine-3′,3″-indoline]-5′-carboxamide]",2.4
2,"CC(C)(C)C[C@@H]1N[C@@H](C(=O)N[C@H]2CC[C@H](C(=O)NCCCC#Cc3cccc4c3CN(C3CCC(=O)NC3=O)C4=O)CC2)[C@H](c2cccc(Cl)c2F)[C@]12C(=O)Nc1cc(Cl)ccc12 (stereo partly drawn) [Cpd. No. 3, (2′S,3R,4′S,5′R)-6-chloro-4′-(3-chloro-2-fluorophenyl)-N-((1r,4R)-4-((5-(2-(2,6-dioxopiperidin-3-yl)-1-oxoisoindolin-4-yl)pent-4-yn-1-yl)carbamoyl)cyclohexyl)-2′-neopentyl-2-oxospiro[indoline-3,3′-pyrrolidine]-5′-carboxamide]",0.62
3,"O=C1CCC(N2Cc3c(C#CC4CCN(C(=O)CN5CCC(NC(=O)[C@@H]6NC7(CCCCC7)[C@@]7(C(=O)Nc8cc(Cl)ccc87)[C@H]6c6cccc(Cl)c6F)CC5)CC4)cccc3C2=O)C(=O)N1 (stereo partly drawn) [Cpd. No. 5, (3′R,4′S,5′R)-6″-chloro-4′-(3-chloro-2-fluorophenyl)-N-(1-(2-(4-((2-(2,6-dioxopiperidin-3-yl)-1-oxoisoindolin-4-yl)ethynyl)piperidin-1-yl)-2-oxoethyl)piperidin-4-yl)-2″-oxodispiro[cyclohexane-1,2′-pyrrolidine-3′,3″-indoline]-5′-carboxamide]",3.1
4,"O=C1CCC(N2Cc3c(C#CC4CCN(C(=O)CN5CCN(C(=O)[C@@H]6NC7(CCCCC7)[C@@]7(C(=O)Nc8cc(Cl)ccc87)[C@H]6c6cccc(Cl)c6F)CC5)CC4)cccc3C2=O)C(=O)N1 (stereo partly drawn) [Cpd. No. 7, 3-(4-((1-(2-(4-((3′R,4′S,5′R)-6″-chloro-4′-(3-chloro-2-fluorophenyl)-2″-oxodispiro[cyclohexane-1,2′-pyrrolidine-3′,3″-indoline]-5′-carbonyl)piperazin-1-yl)acetyl)piperidin-4-yl)ethynyl)-1-oxoisoindolin-2-yl)piperidine-2,6-dione]",> 100
5,"CC1(C)CCC2(CC1)N[C@@H](C(=O)NC1CCN(CC(=O)NCCCC#Cc3cccc4c3CN(C3CCC(=O)NC3=O)C4=O)CC1)[C@H](c1cccc(Cl)c1F)[C@]21C(=O)Nc2cc(Cl)ccc21 (stereo partly drawn) [Cpd. No. 8, (3′R,4′S,5′R)-6″-chloro-4′-(3-chloro-2-fluorophenyl)-N-(1-(2-((5-(2-(2,6-dioxopiperidin-3-yl)-1-oxoisoindolin-4-yl)pent-4-yn-1-yl)amino)-2-oxoethyl)piperidin-4-yl)-4,4-dimethyl-2″-oxodispiro[cyclohexane-1,2′-pyrrolidine-3′,3″-indoline]-5′-carboxamide]",4.5
6,"CN1[C@@H](C(=O)N[C@H]2CC[C@H](C(=O)N3CCC(C#Cc4cccc5c4CN(C4CCC(=O)NC4=O)C5=O)CC3)CC2)[C@H](c2cccc(Cl)c2F)[C@]2(C(=O)Nc3cc(Cl)ccc32)C12CCCCC2 (stereo partly drawn) [Cpd. No. 9, (3′R,4′S,5′R)-6″-chloro-4′-(3-chloro-2-fluorophenyl)-N-((1r,4R)-4-(4-((2-(2,6-dioxopiperidin-3-yl)-1-oxoisoindolin-4-yl)ethynyl)piperidine-1-carbonyl)cyclohexyl)-1′-methyl-2″-oxodispiro[cyclohexane-1,2′-pyrrolidine-3′,3″-indoline]-5′-carboxamide]",2.8
7,"CN1[C@@H](C(=O)NC23CCC(C(=O)N4CCC(C#Cc5cccc6c5CN(C5CCC(=O)NC5=O)C6=O)CC4)(CC2)CC3)[C@H](c2cccc(Cl)c2F)[C@]2(C(=O)Nc3cc(Cl)ccc32)C12CCCCC2 (stereo partly drawn) [Cpd. No. 10, (3′R,4′S,5′R)-6″-chloro-4′-(3-chloro-2-fluorophenyl)-N-(4-(4-((2-(2,6-dioxopiperidin-3-yl)-1-oxoisoindolin-4-yl)ethynyl)piperidine-1-carbonyl)bicyclo[2.2.2]octan-1-yl)-1 ′-methyl-2″-oxodispiro[cyclohexane-1,2′-pyrrolidine-3′,3″-indoline]-5′-carboxamide]",8
8,"O=C1CCC(N2Cc3c(C#CC4CCN(C(=O)C56CC(NC(=O)[C@@H]7NC8(CCCCC8)[C@@]8(C(=O)Nc9cc(Cl)ccc98)[C@H]7c7cccc(Cl)c7F)(C5)C6)CC4)cccc3C2=O)C(=O)N1 (stereo partly drawn) [Cpd. No. 11, (3′R,4′S,5′R)-6″-chloro-4′-(3-chloro-2-fluorophenyl)-N-(3-(4-((2-(2,6-dioxopiperidin-3-yl)-1-oxoisoindolin-4-yl)ethynyl)piperidine-1-carbonyl)bicyclo[1.1.1]pentan-1-yl)-2″-oxodispiro[cyclohexane-1,2′-pyrrolidine-3′,3″-indoline]-5′-carboxamide]",0.3
9,"O=C1CCC(N2Cc3c(C#CC4CCN(C(=O)[C@H]5C[C@H](NC(=O)[C@@H]6NC7(CCCCC7)[C@@]7(C(=O)Nc8cc(Cl)ccc87)[C@H]6c6cccc(Cl)c6F)C5)CC4)cccc3C2=O)C(=O)N1 (stereo partly drawn) [Cpd. No. 12, (3′R,4′S,5′R)-6″-chloro-4′-(3-chloro-2-fluorophenyl)-N-((1r,3R)-3-(4-((2-(2,6-dioxopiperidin-3-yl)-1-oxoisoindolin-4-yl)ethynyl)piperidine-1-carbonyl)cyclobutyl)-2″-oxodispiro[cyclohexane-1,2′-pyrrolidine-3′,3″-indoline]-5′-carboxamide]",1.4
10,"CC1(C)CCC2(CC1)N[C@@H](C(=O)NC13CCC(C(=O)N4CCC(C#Cc5cccc6c5CN(C5CCC(=O)NC5=O)C6=O)CC4)(CC1)CC3)[C@H](c1cccc(Cl)c1F)[C@]21C(=O)Nc2cc(Cl)ccc21 (stereo partly drawn) [Cpd. No. 13, (3′R,4′S,5′R)-6″-chloro-4′-(3-chloro-2-fluorophenyl)-N-(4-(4-((2-(2,6-dioxopiperidin-3-yl)-1-oxoisoindolin-4-yl)ethynyl)piperidine-1-carbonyl)bicyclo[2.2.2]octan-1-yl)-4,4-dimethyl-2″-oxodispiro[cyclohexane-1,2′-pyrrolidine-3′,3″-indoline]-5′-]",6
11,"CN(C(=O)[C@@H]1NC2(CCCCC2)[C@@]2(C(=O)Nc3cc(Cl)ccc32)[C@H]1c1cccc(Cl)c1F)[C@H]1CC[C@H](C(=O)N2CCC(C#Cc3cccc4c3CN(C3CCC(=O)NC3=O)C4=O)CC2)CC1 (stereo partly drawn) [Cpd. No. 15, (3′R,4′S,5′R)-6″-chloro-4′-(3-chloro-2-fluorophenyl)-N-((1r,4R)-4-(4-((2-(2,6-dioxopiperidin-3-yl)-1-oxoisoindolin-4-yl)ethynyl)piperidine-1-carbonyl)cyclohexyl)-N-methyl-2″-oxodispiro[cyclohexane-1,2′-pyrrolidine-3′,3″-indoline]-5′-carboxamide]",60
12,"CN1[C@@H](C(=O)N(C)[C@H]2CC[C@H](C(=O)N3CCC(C#Cc4cccc5c4CN(C4CCC(=O)NC4=O)C5=O)CC3)CC2)[C@H](c2cccc(Cl)c2F)[C@]2(C(=O)Nc3cc(Cl)ccc32)C12CCCCC2 (stereo partly drawn) [Cpd. No. 16, (3′R,4′S,5′R)-6″-chloro-4′-(3-chloro-2-fluorophenyl)-N-((1r,4R)-4-(4-((2-(2,6-dioxopiperidin-3-yl)-1-oxoisoindolin-4-yl)ethynyl)piperidine-1-carbonyl)cyclohexyl)-N,1′-dimethyl-2″-oxodispiro[cyclohexane-1,2′-pyrrolidine-3′,3″-indoline]-5′-carboxamide]",> 100
13,"CCN1[C@@H](C(=O)N2CCC(C(=O)N3CCC(C#Cc4cccc5c4CN(C4CCC(=O)NC4=O)C5=O)CC3)CC2)[C@H](c2cccc(Cl)c2F)[C@]2(C(=O)Nc3cc(Cl)ccc32)C12CCCCC2 (stereo partly drawn) [Cpd. No. 22, 3-(4-((1-(1-((3′R,4′S,5′R)-6″-chloro-4′-(3-chloro-2-fluorophenyl)-1′-ethyl-2″-oxodispiro[cyclohexane-1,2′-pyrrolidine-3′,3″-indoline]-5′-carbonyl)piperidine-4-carbonyl)piperidin-4-yl)ethynyl)-1-oxoisoindolin-2-yl)piperidine-2,6-dione]",> 100
14,"O=C1CCC(N2Cc3c(C#CC4CCN(C(=O)C5CCN(C(=O)[C@@H]6NC7(CCCCC7)[C@@]7(C(=O)Nc8cc(Cl)ccc87)[C@H]6c6cccc(Cl)c6F)CC5)CC4)cccc3C2=O)C(=O)N1 (stereo partly drawn) [Cpd. No. 23, 3-(4-((1-(1-((3′R,4′S,5′R)-6″-chloro-4′-(3-chloro-2-fluorophenyl)-2″-oxodispiro[cyclohexane-1,2′-pyrrolidine-3′,3″-indoline]-5′-carbonyl)piperidine-4-carbonyl)piperidin-4-yl)ethynyl)-1-oxoisoindolin-2-yl)piperidine-2,6-dione]",> 100
